System: Human SH-SY5Y dopaminergic cells
Experiment: 6-OHDA in vitro model of Parkinson's Disease, nitrite quantification (Griess)
Format: cell-based
Conditions: DMT 1 μM 1 h, then 6-OHDA 30 μM 24 h

Compound: CN(C)CCc1c[nH]c2ccccc12 [DMT, N,N-dimethyltryptamine]
- nitrite production brought about by 6-OHDA (vs 6-OHDA alone): significantly reduced
- reduction of nitrite levels in the presence of Ritanserin (Rit 1 μM 1 h): preserved

Source: patent publication US11723894B2, “Combination product for the treatment of neurological and/or psychiatric disorders” (Consejo Superior de Investigaciones Cientificas (CSIC), priority 2017, dated 2023)
